Two compounds from patent publication US20070249827A1, “Meropenem Intermediatein in Crystalling Form” (SANDOZ AG, priority 2004, published 2007) can be followed below.

This data set is described as follows: Stability comparison between crystalline form and amorphous form (storage 72 h at 70° C.). The format is physicochemical. The settings on record: for content, starting value / sum of all by-products, starting value: before storage.

With `C[C@@H](O)[C@H]1C(=O)N2C(C(=O)OCc3ccc([N+](=O)[O-])cc3)=C(S[C@H]3C[C@@H](C(=O)N(C)C)N(C(=O)OCc4ccc([N+](=O)[O-])cc4)C3)[C@H](C)[C@H]12` [Compound of formula I in amorphous form, (4R,5S,6S)-(p-nitrobenzyl) 3-[[(3S,5S)-1(-p-nitrobenzyloxycarbonyl)-5-(dimethylaminocarbonyl)-3-pyrrolidinyl]thio]-6-[(1R)-1-hydroxyethyl]-4-methyl-7-oxo-1-azabicyclo[3.2.0]hept-2-ene-2-carboxylate], the “content after 72 h at 70° C.” value is 90.8% by weight; the “sum of all by-products after 72 h at 70° C.” value was “sum of all by-products 5.7%”; the “content, starting value” was found to be 92.4% by weight; the “sum of all by-products, starting value” is given as 2.5%.
In the same order, the values of `C[C@@H](O)[C@H]1C(=O)N2C(C(=O)OCc3ccc([N+](=O)[O-])cc3)=C(S[C@H]3C[C@@H](C(=O)N(C)C)N(C(=O)OCc4ccc([N+](=O)[O-])cc4)C3)[C@H](C)[C@H]12` [Compound of formula I in crystalline form] [(4R,5S,6S)-(p-nitrobenzyl) 3-[[(3S,5S)-1(-p-nitrobenzyloxycarbonyl)-5-(dimethylaminocarbonyl)-3-pyrrolidinyl]thio]-6-[(1R)-1-hydroxyethyl]-4-methyl-7-oxo-1-azabicyclo[3.2.0]hept-2-ene-2-carboxylate] are 99.1% by weight, <0.3%, 99.4% by weight and <0.3%.
